According to ChEMBL document CHEMBL5046233, “Nitroxoline and its derivatives are potent inhibitors of metallo-β-lactamases” (Eur J Med Chem, 2022):
The source made the active and inactive calls. No cut-off for these calls is given here.

Legend:
Escherichia coli [1] = test: Potentiation of imipenem-induced antibacterial activity against Escherichia coli T2351 expressing NDM-5 assessed as imipenem MIC at 32 mg/L by CLSI protocol based broth microdilution assay; format: functional
HUVEC = test: Cytotoxicity against HUVEC cells assessed as late apoptosis by analysing number of sub-diploid events at 0.03 to 100 ug/mL measured after 24 hrs by propidium iodide staining based flow cytometry analysis; format: toxicity, cell-based; conditions: human, dose 0.03-100 µg/ml
Escherichia coli [2] = test: Potentiation of imipenem-induced antibacterial activity against Escherichia coli T2433 expressing OXA-48 assessed as imipenem MIC at 32 mg/L by CLSI protocol based broth microdilution assay; format: functional
Escherichia coli [3] = test: Antimicrobial activity against Escherichia coli clinical isolate T2228 expressing VIM-1 assessed as inhibition of bacterial growth by CLSI protocol based broth microdilution assay; format: functional
Pseudomonas aeruginosa [4] = test: Potentiation of imipenem-induced antibacterial activity against Pseudomonas aeruginosa T2325 expressing IMP-1 assessed as fold change in imipenem MIC at 32 mg/L by CLSI protocol based broth microdilution assay; format: functional
Klebsiella pneumoniae [5] = test: Antimicrobial activity against Klebsiella pneumoniae T2301 expressing NDM-1 assessed as assessed as inhibition of bacterial growth at 0.5XMIC measured after 24 hrs by time-kill assay; format: functional, organism-based
Escherichia coli [6] = test: Potentiation of imipenem-induced antibacterial activity against Escherichia coli T2435 expressing KPC-2 assessed as fold change in imipenem MIC at 32 mg/L by CLSI protocol based broth microdilution assay; format: functional
Pseudomonas aeruginosa [7] = test: Potentiation of imipenem-induced antibacterial activity against Pseudomonas aeruginosa T2282 expressing VIM-2 assessed as fold change in imipenem MIC at 32 mg/L by CLSI protocol based broth microdilution assay; format: functional
Enterobacter cloacae [8] = test: Potentiation of imipenem-induced antibacterial activity against Enterobacter cloacae T2218 expressing GIM-1 assessed as fold change in imipenem MIC at 32 mg/L by CLSI protocol based broth microdilution assay; format: functional
Pseudomonas aeruginosa [9] = test: Potentiation of imipenem-induced antibacterial activity against Pseudomonas aeruginosa T2217 expressing VIM-2 assessed as fold change in imipenem MIC at 32 mg/L by CLSI protocol based broth microdilution assay; format: functional
Pseudomonas aeruginosa [10] = test: Potentiation of imipenem-induced antibacterial activity against Pseudomonas aeruginosa T1098 expressing IMP-7 assessed as imipenem MIC at 32 mg/L by CLSI protocol based broth microdilution assay; format: functional
Bacteria [11] = test: Inhibition of recombinant IMP-1 (unknown origin) using fluorocillin as substrate at 3 uM incubated for 30 mins by fluorescence based assay
Enterobacter cloacae [12] = test: Potentiation of imipenem-induced antibacterial activity against Enterobacter cloacae T2353 expressing VIM-1 assessed as fold change in imipenem MIC at 32 mg/L by CLSI protocol based broth microdilution assay; format: functional
Escherichia coli [13] = test: Potentiation of imipenem-induced antibacterial activity against Escherichia coli T2544 expressing VIM-1 assessed as imipenem MIC at 32 mg/L by CLSI protocol based broth microdilution assay; format: functional
Escherichia coli [14] = test: Potentiation of imipenem-induced antibacterial activity against Escherichia coli T2359 expressing NDM-1 assessed as fold change in imipenem MIC at 32 mg/L by CLSI protocol based broth microdilution assay; format: functional
Escherichia coli [15] = test: Potentiation of imipenem-induced antibacterial activity against Escherichia coli T2351 expressing NDM-5 assessed as fold change in imipenem MIC at 32 mg/L by CLSI protocol based broth microdilution assay; format: functional
Escherichia coli [16] = test: Potentiation of imipenem-induced antibacterial activity against Escherichia coli T2435 expressing KPC-2 assessed as imipenem MIC at 32 mg/L by CLSI protocol based broth microdilution assay; format: functional
Pseudomonas aeruginosa [17] = test: Potentiation of imipenem-induced antibacterial activity against Pseudomonas aeruginosa T2283 expressing VIM-2 assessed as imipenem MIC at 32 mg/L by CLSI protocol based broth microdilution assay; format: functional
Escherichia coli [18] = test: Antimicrobial activity against Escherichia coli T2359 expressing VIM-1 assessed as inhibition of bacterial growth at 0.5XMIC for 6 hrs by CLSI protocol based broth microdilution assay; format: functional, organism-based
Klebsiella pneumoniae [19] = test: Potentiation of imipenem-induced antibacterial activity against Klebsiella pneumoniae clinical isolate T2301 expressing NDM-1 assessed as fold change in imipenem MIC at 32 mg/L by CLSI protocol based broth microdilution assay; format: functional
Escherichia coli [20] = test: Potentiation of imipenem-induced antibacterial activity against Escherichia coli clinical isolate T2228 expressing VIM-1 assessed as fold change in imipenem MIC at 32 mg/L by CLSI protocol based broth microdilution assay; format: functional
Klebsiella pneumoniae [21] = test: Potentiation of cefuroxime-induced antibacterial activity against Klebsiella pneumoniae clinical isolate T2301 expressing NDM-1 assessed as cefuroxime MIC at 32 mg/L by CLSI protocol based broth microdilution assay; format: functional
Bacteria [22] = test: Inhibition of recombinant IMP-1 (unknown origin) using fluorocillin as substrate at 10 uM incubated for 30 mins by fluorescence based assay
Escherichia coli [23] = test: Synergistic antibacterial activity against Escherichia coli clinical isolate T2228 expressing VIM-1 assessed as fractional inhibitory concentration index in presence of imipenem by checkerboard assay; format: functional
Escherichia coli [24] = test: Antimicrobial activity against Escherichia coli T2544 expressing VIM-1 assessed as inhibition of bacterial growth by CLSI protocol based broth microdilution assay; format: functional
Klebsiella pneumoniae [25] = test: Potentiation of piperacillin-induced antibacterial activity against Klebsiella pneumoniae clinical isolate T2301 expressing NDM-1 assessed as piperacillin MIC at 32 mg/L by CLSI protocol based broth microdilution assay; format: functional
Pseudomonas aeruginosa [26] = test: Potentiation of imipenem-induced antibacterial activity against Pseudomonas aeruginosa T2282 expressing VIM-2 assessed as imipenem MIC at 32 mg/L by CLSI protocol based broth microdilution assay; format: functional
Escherichia coli [27] = test: Potentiation of meropenem-induced antibacterial activity against Escherichia coli clinical isolate T2228 expressing VIM-1 assessed as meropenem MIC at 32 mg/L by CLSI protocol based broth microdilution assay; format: functional
Pseudomonas aeruginosa [28] = test: Potentiation of imipenem-induced antibacterial activity against Pseudomonas aeruginosa T2217 expressing VIM-2 assessed as imipenem MIC at 32 mg/L by CLSI protocol based broth microdilution assay; format: functional
Klebsiella pneumoniae [29] = test: Potentiation of imipenem-induced antibacterial activity against Klebsiella pneumoniae T2216 expressing VIM-1 assessed as imipenem MIC at 32 mg/L by CLSI protocol based broth microdilution assay; format: functional
Escherichia coli [30] = test: Potentiation of imipenem-induced antibacterial activity against Escherichia coli T2433 expressing OXA-48 assessed as fold change in imipenem MIC at 32 mg/L by CLSI protocol based broth microdilution assay; format: functional
Klebsiella pneumoniae [31] = test: Bactericidal activity against Klebsiella pneumoniae T2301 expressing NDM-1 assessed as killing rate at 0.5 X MIC measured after 24 hrs in presence of imipenem by time-kill assay relative to control; format: functional
Pseudomonas aeruginosa [32] = test: Potentiation of imipenem-induced antibacterial activity against Pseudomonas aeruginosa T2357 expressing VIM-1 assessed as imipenem MIC at 32 mg/L by CLSI protocol based broth microdilution assay; format: functional
Serratia marcescens = test: Potentiation of imipenem-induced antibacterial activity against Serratia marcescens T2352 expressing NDM-1 assessed as fold change in imipenem MIC at 32 mg/L by CLSI protocol based broth microdilution assay; format: functional

For N#CCN(Cc1ccccc1)Cc1cc([N+](=O)[O-])c2cccnc2c1O, the MIC (Escherichia coli [1]) was 1 ng/mL, the Activity (HUVEC) was “Toxic” and the MIC (Escherichia coli [2]) was 2 ng/mL. The MIC (Escherichia coli [3]) was greater than 67 ng/mL, the “fold change (FC)” value (Pseudomonas aeruginosa [4]) was 32 and the Activity (Klebsiella pneumoniae [5]) was “inactive”. For the same molecule, the “fold change (FC)” value (Escherichia coli [6]) was 1, the “fold change (FC)” value (Pseudomonas aeruginosa [7]) was 32 and the “fold change (FC)” value (Enterobacter cloacae [8]) was 4. For the same molecule, the “fold change (FC)” value (Pseudomonas aeruginosa [9]) was 16, the MIC (Pseudomonas aeruginosa [10]) was 16 ng/mL and the inhibition (Bacteria [11]) was 59%. The “fold change (FC)” value (Enterobacter cloacae [12]) was 8, the MIC (Escherichia coli [13]) was 0.5 ng/mL and the “fold change (FC)” value (Escherichia coli [14]) was 256. The “fold change (FC)” value (Escherichia coli [15]) was 8, the MIC (Escherichia coli [16]) was 4 ng/mL and the MIC (Pseudomonas aeruginosa [17]) was 1 ng/mL. For the same molecule, the inhibition (Escherichia coli [18]) was “Active”, the “fold change (FC)” value (Klebsiella pneumoniae [19]) was 64 and the “fold change (FC)” value (Escherichia coli [20]) was 8. For the same molecule, the MIC (Klebsiella pneumoniae [21]) was 4100 ng/mL, the inhibition (Bacteria [22]) was 93% and the “fractional inhibitory concentration index (FICI)” value (Escherichia coli [23]) was 0.265. The MIC (Escherichia coli [24]) was greater than 65 ng/mL, the MIC (Klebsiella pneumoniae [25]) was 2050 ng/mL and the MIC (Pseudomonas aeruginosa [26]) was 8 ng/mL. For the same molecule, the MIC (Escherichia coli [27]) was 125 ng/mL, the MIC (Pseudomonas aeruginosa [28]) was 16 ng/mL and the MIC (Klebsiella pneumoniae [29]) was 0.5 ng/mL. The “fold change (FC)” value (Escherichia coli [30]) was 1, the Activity (Klebsiella pneumoniae [31]) was greater than 99.9% and the MIC (Pseudomonas aeruginosa [32]) was 8 ng/mL. For the same molecule, the “fold change (FC)” value (Serratia marcescens) was 1024.
